How the values were obtained:
GLP1R‐neurons [1] = assay: Ca^2+ imaging, GLP1R‐neurons (iPSC‐derived); assay type: cell-based, human; conditions: 10 nM GLP1 (GLP1 (7–37) in method), day 35, Fluo‐8 AM
Method: (§1) Before initiating differentiation, the iPSCs (1–2 × 10^5 cells·cm^−2; Cell lines and cell culture section) were transferred to 6‐well plates (Corning, Inc., Corning, NY, USA) coated with 2‐methacryloyloxyethyl phosphorylcholine (MPC) polymer (Lipidure CM5206E; NOF, Tokyo, Japan). The cells were maintained in mTeSR1 cGMP medium containing 10 μM Y‐27632 (Fujifilm Wako Pure Chemical Industries) for 2 or 3 days to form embryoid body (EBs) in a rotary shaker at 95 r.p.m. (OS‐762RC; Optime, Tokyo, Japan). Subsequently, iPSCs were differentiated into neural crest cells (NCCs), as previously reported. Briefly, NCCs were induced from Ebs using knockout serum replacement (KSR) medium and N2 medium with graded addition of nerve growth factors and signaling factors. KSR medium was composed of DMEM‐F12 (Fujifilm Wako Pure Chemical Industries), 20% KSR (Thermo Fisher Scientific), 1% NEAA, 1% monothioglycerol (Fujifilm Wako Pure Chemical Industries), and 1% P/S. N2 medium consisted of DMEM‐F12, 1% N2 supplement (Fujifilm Wako Pure Chemical Industries), 1% NEAA, and 1% P/S. When EB formation was considered day 0 of induction, the medium was changed at days 2, 5, 7, 9, and 12. […]

GLP1R‐neurons [2] = assay: MEA recording of neuronal firing, GLP1R‐neurons; assay type: cell-based, human; conditions: 10 nM GLP1; day 27; 0 nM n = 31 electrodes, 10 nM n = 34 electrodes; 5 min before and after ligand addition
Method: as §1

Q: With “GLP1: GLP1 (4280‐v; Peptide Institute, Inc.); GLP1 (7–37) in Ca2+ imaging (HAEGTFTSDVSSYLEGQAAKEFIAWLVKGRG; Glucagon-like peptide 1(7-37); UniProt P01275 98-128, looked up)” as the substance, how does the “Intracellular Ca^2+ concentration of selected GLP1R‐neurons (traces)” value (GLP1R‐neurons [1]; Fig. S5B) read?
A: Its value is “increased the intracellular Ca^2+ concentration”.

Q: What about the “Ratio of change (ΔF stim/F 0) in mean fluorescence intensity before and after ligand addition” value (GLP1R‐neurons [1]; n = 10, Student's t‐test vs. 0 nM, Fig. 6C) of the same substance?
A: Its value is “significantly increased”.

Q: What about the “Change rate of firing frequency” value (GLP1R‐neurons [2]) of the same substance?
A: Its value is “increased the change rate of firing frequency”.
